Assay results: patent publication US20180008718A1, “COMPOSITIONS FOR THE SUSTAINED RELEASE OF ANTI-GLAUCOMA AGENTS TO CONTROL INTRAOCULAR PRESSURE” (The Johns Hopkins University, priority 2015, published 2018)

Legend:
[1] = In vitro drug release kinetics of ECA-L-Cysteine polyanhydride microparticles; assay type: physicochemical; details: accelerated infinite sink conditions at 37° C.; FIG. 1
Source text: FIG. 1 is a graph showing the release of ECA-L-cysteine (% release) as a function of time (days).

[2] = system: normal, C57BL/6 mice; assay: IOP lowering effect in normal mice after administration via the epischleral vein at the limbus; assay type: in vivo
Source text: FIG. 2A is a graph showing intraocular pressure (IOP, mmHg) as function of administration of free ECA and a control over time (days). FIG. 2B is a graph showing intraocular pressure (IOP, mmHg) as function of administration of ECA-L-cysteine particles and a control over time (days).

[3] = system: human patients with elevated IOP; details: intracameral administration; cited from earlier work

Compound	time over which ECA-L-Cysteine conjugate was continually released in vitro [1]	duration of the IOP lowering effect ([2]; 1 μg drug via epischleral vein at the limbus)	IOP lowering compared to the untreated control group ([2]; 1 μg drug via epischleral vein at the limbus, FIGS. 2A and 2B)	IOP lowering effect by Day 5 ([2]; 1 μg free drug, Day 5)	duration of IOP lowering [3]
CCC(CSC[C@H](N)C(=O)O)C(=O)c1ccc(OCC(=O)O)c(Cl)c1Cl (stereo partly drawn) [ECA-L-Cysteine conjugate]	14 days				
C=C(CC)C(=O)c1ccc(OCC(=O)O)c(Cl)c1Cl [free ECA, ethacrynic acid]		1 days	significant lowering of IOP	gone	three
